Experiments:
[1] = tested on: Male ddY mice; assay: Suppressing activity on morphine analgesic tolerance (hot plate method, response latency); format: in vivo; details: for ΔChange (Latency at each time point − Pre value) 0.5 h / ΔChange (Latency at each time point − Pre value) 1 h / ΔChange (Latency at each time point − Pre value) 2 h: single morphine administration group: morphine 6 mg/kg s.c. only on day 7
[2] = tested on: adenosine A2A receptor; details: known from the literature (Eur. J. Pharmacol., 1994, 267(3), 335 and others); cited from earlier work
[3] = tested on: Male ddY mice; assay: Suppressing activity on oxycodone analgesic tolerance (hot plate method, response latency); details: for Latency (sec) Pre value (before drug administration on last day) / ΔChange (Latency at each time point − Pre value) 0.5 h / ΔChange (Latency at each time point − Pre value) 1 h / ΔChange (Latency at each time point − Pre value) 2 h: Table 6; for Latency (sec) Pre value (before drug administration on last day): day 4; for ΔChange (Latency at each time point − Pre value) 0.5 h: day 4, 0.5 h; for ΔChange (Latency at each time point − Pre value) 1 h: day 4, 1 h; for ΔChange (Latency at each time point − Pre value) 2 h: day 4, 2 h
[4] = tested on: Male ddY mice; assay: Suppressing activity on morphine-induced constipation (number of fecal pellets); format: in vivo; details: for number of fecal pellets: FIG. 2
Description: Food and water were provided ad libitum. At the time of collection of fecal pellets, food and water were not provided.
Morphine was dissolved in physiological saline at a concentration of 0.3 mg/mL and subcutaneously administered at a dose of 3 mg/kg.
On the day of the test, the tails of the mice were numbered for identification, and the body weight of each mouse was measured. On the basis of the measured body weight, 0.5% MC or Compound (IA) was orally administered. At 30 minutes after administration of 0.5% MC or Compound (IA), physiological saline or morphine was subcutaneously administered, and collection of fecal pellets was started. The fecal pellets were collected at 3 hours after administration of morphine. The amount of feces was evaluated by counting the number of the fecal pellets.

[5] = tested on: Male ddY mice; assay: Suppressing activity on morphine analgesic tolerance (hot plate method, response latency); format: in vivo; details: for ΔChange (Latency at each time point − Pre value) 0.5 h / ΔChange (Latency at each time point − Pre value) 1 h / ΔChange (Latency at each time point − Pre value) 2 h: Table 3; for ΔChange (Latency at each time point − Pre value) 0.5 h: day 7, 0.5 h; for ΔChange (Latency at each time point − Pre value) 1 h: day 7, 1 h; for ΔChange (Latency at each time point − Pre value) 2 h: day 7, 2 h; for development of analgesic tolerance (response latency) / effect on the response latency: Test Example 4; for development of analgesic tolerance (response latency): compound 10 mg/kg p.o. 30 min before each morphine 6 mg/kg s.c.
Description: (§1) Food and water were provided ad libitum.
(§2) Morphine was dissolved in physiological saline at a concentration of 0.6 mg/mL and subcutaneously administered at a dose of 6 mg/kg.
as §1, §2
The effect of Compounds (IC) and (ID) on morphine analgesic tolerance was studied. The experiment was performed in the same manner as in Test Example 3. Compounds (IC) and (ID) were used at a dose of 10 mg/kg, respectively.

[6] = Compound (IA) 10 mg/kg p.o. repeatedly administered alone
[7] = repeated combination group: Compound (IA) 10 mg/kg p.o. 30 min before oxycodone 20 mg/kg p.o., 4 days
[8] = compound 10 mg/kg p.o. repeatedly administered alone
[9] = repeated combination group: compound 10 mg/kg p.o. 30 min before each morphine 6 mg/kg s.c., 7 days

Structure (SMILES): CCCn1c(=O)c2c(nc(/C=C/c3ccc(OC)c(OC)c3)n2C)n(CCC)c1=O [Compound (IA)]
- development of analgesic tolerance (response latency) ([1]; Test Example 1, FIG. 1, Compound (IA) 10 mg/kg p.o. 30 min before morphine 6 mg/kg s.c., repeated 7 days): the development of analgesic tolerance was prevented
- effect on the response latency ([1]; Test Example 1, FIG. 1, Compound (IA) 10 mg/kg p.o. repeatedly administered alone): the effect on the response latency was not observed
- adenosine A2A receptor antagonistic activity [2]: potent and selective
- Latency (sec) Pre value (before drug administration on last day) [3, 6]: 11.9 ± 1.2 s
- ΔChange (Latency at each time point − Pre value) 0.5 h [3, 6]: -0.2 ± 1.7 s
- ΔChange (Latency at each time point − Pre value) 1 h [3, 6]: -0.4 ± 2.2 s
- ΔChange (Latency at each time point − Pre value) 2 h [3, 6]: -0.1 ± 2.2 s
- Latency (sec) Pre value (before drug administration on last day) [3, 7]: 11.9 ± 0.7 s
- ΔChange (Latency at each time point − Pre value) 0.5 h [3, 7]: 13.5 ± 2.6 s
- ΔChange (Latency at each time point − Pre value) 1 h [3, 7]: 6.0 ± 1.6 s
- ΔChange (Latency at each time point − Pre value) 2 h [3, 7]: 2.2 ± 1.6 s
- development of analgesic tolerance (response latency) ([3]; Test Example 7, Compound (IA) 10 mg/kg p.o. 30 min before oxycodone 20 mg/kg p.o., 4 days): the development of analgesic tolerance was prevented
- effect on the response latency ([3]; Test Example 7, Compound (IA) 10 mg/kg p.o. repeatedly administered alone): the effect on the response latency was not observed
- number of fecal pellets ([4]; Compound (IA) 10 mg/kg p.o. 30 min before morphine 3 mg/kg s.c., 3 hours, vs morphine administration group): significantly increased
- diarrhea ([4]; combination: Compound (IA) 10 mg/kg p.o. and morphine 3 mg/kg s.c.): diarrhea was not induced
- diarrhea ([4]; only Compound (IA) 10 mg/kg p.o. administered): diarrhea was not induced

Structure (SMILES): CCn1c(=O)c2c(nc(/C=C/c3cc(OC)c(OC)c(OC)c3)n2C)n(CC)c1=O [Compound (IC)]
- ΔChange (Latency at each time point − Pre value) 0.5 h [5, 8]: 1.0 ± 0.7 s
- ΔChange (Latency at each time point − Pre value) 1 h [5, 8]: 3.3 ± 1.2 s
- ΔChange (Latency at each time point − Pre value) 2 h [5, 8]: 1.7 ± 0.7 s
- ΔChange (Latency at each time point − Pre value) 0.5 h [5, 9]: 16.0 ± 1.8 s
- ΔChange (Latency at each time point − Pre value) 1 h [5, 9]: 5.1 ± 1.7 s
- ΔChange (Latency at each time point − Pre value) 2 h [5, 9]: 0.9 ± 1.3 s
- development of analgesic tolerance (response latency) ([5]; 7 days): the development of analgesic tolerance was prevented
- effect on the response latency [5, 8]: the effect on the response latency was not observed

Structure (SMILES): COc1ccc(/C=C/c2nc3c(c(=O)n(C)c(=O)n3C)n2C)cc1OC [Compound (ID)]
- ΔChange (Latency at each time point − Pre value) 0.5 h [5, 8]: 2.1 ± 0.8 s
- ΔChange (Latency at each time point − Pre value) 1 h [5, 8]: 2.3 ± 1.3 s
- ΔChange (Latency at each time point − Pre value) 2 h [5, 8]: 2.5 ± 0.9 s
- ΔChange (Latency at each time point − Pre value) 0.5 h [5, 9]: 14.3 ± 1.7 s
- ΔChange (Latency at each time point − Pre value) 1 h [5, 9]: 5.1 ± 1.3 s
- ΔChange (Latency at each time point − Pre value) 2 h [5, 9]: -0.1 ± 1.4 s
- development of analgesic tolerance (response latency) ([5]; 7 days): the development of analgesic tolerance was prevented
- effect on the response latency [5, 8]: the effect on the response latency was not observed

Structure (SMILES): CN1CC[C@]23c4c5ccc(O)c4O[C@H]2[C@@H](O)C=C[C@H]3[C@H]1C5 [morphine, reference compound]
- ΔChange (Latency at each time point − Pre value) 0.5 h ([1]; Table 1): 21.9 ± 1.9 s
- ΔChange (Latency at each time point − Pre value) 1 h ([1]; Table 1): 11.8 ± 1.1 s
- ΔChange (Latency at each time point − Pre value) 2 h ([1]; Table 1): 2.9 ± 0.9 s
- ΔChange (Latency at each time point − Pre value) 0.5 h ([1]; Table 2): 20.2 ± 1.9 ^ sec
- ΔChange (Latency at each time point − Pre value) 1 h ([1]; Table 2): 6.3 ± 1.7 s
- ΔChange (Latency at each time point − Pre value) 2 h ([1]; Table 2): 2.3 ± 0.5 s
- ΔChange (Latency at each time point − Pre value) 0.5 h ([1]; Table 3): 19.5 ± 2.0 s
- ΔChange (Latency at each time point − Pre value) 1 h ([1]; Table 3): 6.4 ± 1.5 s
- ΔChange (Latency at each time point − Pre value) 2 h ([1]; Table 3): -0.8 ± 1.5 s
- ΔChange (Latency at each time point − Pre value) 0.5 h ([1]; Table 4): 16.8 ± 2.7 s
- ΔChange (Latency at each time point − Pre value) 1 h ([1]; Table 4): 10.4 ± 2.2 s
- ΔChange (Latency at each time point − Pre value) 2 h ([1]; Table 4): 8.8 ± 0.6 s
- ΔChange (Latency at each time point − Pre value) 0.5 h ([1]; Table 5): 18.0 ± 2.2 s
- ΔChange (Latency at each time point − Pre value) 1 h ([1]; Table 5): 6.8 ± 1.3 s
- ΔChange (Latency at each time point − Pre value) 2 h ([1]; Table 5): 1.9 ± 1.0 s
- development of analgesic tolerance (response latency) ([1]; Test Example 1, FIG. 1, morphine 6 mg/kg s.c. repeatedly for 7 days vs single morphine administration group): the development of analgesic tolerance was observed
- development of analgesic tolerance (response latency) ([1]; Test Example 3, morphine 6 mg/kg s.c. repeatedly for 7 days vs single morphine administration group): the development of analgesic tolerance was observed
- development of analgesic tolerance (response latency) ([1]; Test Example 4, morphine 6 mg/kg s.c. repeatedly for 7 days vs single morphine administration group): the development of analgesic tolerance was observed
- development of analgesic tolerance (response latency) ([1]; Test Example 5, morphine 6 mg/kg s.c. repeatedly for 7 days vs single morphine administration group): the development of analgesic tolerance was observed
- development of analgesic tolerance (response latency) ([1]; Test Example 6, morphine 6 mg/kg s.c. repeatedly for 7 days vs single morphine administration group): the development of analgesic tolerance was observed
- number of fecal pellets ([4]; morphine 3 mg/kg s.c., pellets collected 3 hours after administration, vs normal group): significantly decreased
